Experimental data taken from US20240158412A1 (Faxian Therapeutics, LLC, priority 2021, published 2024).
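Further: fluorescence intensity readout of USP7 enzymatic activity, reaction incubated 90 min at room temperature.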

The compounds below were run against USP7 (Homo sapiens, UniProt Q93009) (assay: biochemical).
Sequence of USP7 (Q93009 whole entry): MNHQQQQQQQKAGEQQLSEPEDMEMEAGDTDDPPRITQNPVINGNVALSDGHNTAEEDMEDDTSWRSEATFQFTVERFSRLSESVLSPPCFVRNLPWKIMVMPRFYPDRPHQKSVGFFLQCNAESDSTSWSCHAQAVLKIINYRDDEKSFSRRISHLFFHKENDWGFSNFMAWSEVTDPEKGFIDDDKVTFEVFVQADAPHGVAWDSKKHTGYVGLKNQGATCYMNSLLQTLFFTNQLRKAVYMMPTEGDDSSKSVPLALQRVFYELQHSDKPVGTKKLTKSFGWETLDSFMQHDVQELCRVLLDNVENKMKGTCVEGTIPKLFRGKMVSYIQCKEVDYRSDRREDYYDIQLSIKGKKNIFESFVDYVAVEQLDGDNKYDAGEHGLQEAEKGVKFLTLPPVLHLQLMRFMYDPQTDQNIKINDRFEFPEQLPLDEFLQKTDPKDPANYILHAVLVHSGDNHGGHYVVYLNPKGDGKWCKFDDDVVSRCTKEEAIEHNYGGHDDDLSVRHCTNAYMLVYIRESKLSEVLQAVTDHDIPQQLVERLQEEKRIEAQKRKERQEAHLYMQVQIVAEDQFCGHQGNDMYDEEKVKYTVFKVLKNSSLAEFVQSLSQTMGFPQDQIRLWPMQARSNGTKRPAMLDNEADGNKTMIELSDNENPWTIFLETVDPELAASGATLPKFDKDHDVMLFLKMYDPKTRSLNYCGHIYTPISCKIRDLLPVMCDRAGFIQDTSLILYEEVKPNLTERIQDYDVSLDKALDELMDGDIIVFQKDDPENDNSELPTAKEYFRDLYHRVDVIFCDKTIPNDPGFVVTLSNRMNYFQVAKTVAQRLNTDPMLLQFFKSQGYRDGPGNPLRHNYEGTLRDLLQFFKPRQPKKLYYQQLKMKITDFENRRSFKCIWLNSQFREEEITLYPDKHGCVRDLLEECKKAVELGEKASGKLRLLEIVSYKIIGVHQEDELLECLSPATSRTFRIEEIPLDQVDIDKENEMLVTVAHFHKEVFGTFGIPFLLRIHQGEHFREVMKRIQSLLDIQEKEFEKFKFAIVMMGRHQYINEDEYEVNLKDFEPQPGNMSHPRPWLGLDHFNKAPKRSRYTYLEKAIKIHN
An IC50 of 10 to 100 nM was found for `O=C1CCC(=O)N1Cc1cc2nccc(-c3cc(Cl)cc4c3N([C@@H]3CCNC3)CCC4)c2s1` [Example 58, (R)-1-((7-(6-chloro-1-(pyrrolidin-3-yl)-1,2,3,4-tetrahydroquinolin-8-yl)thieno[3,2-b]pyridin-2-yl)methyl)pyrrolidine-2,5-dione] in this work. With `CN1CC[C@H](N2CCCc3cc(Cl)cc(-c4ccnc5cc(CN6C(=O)CCC6=O)sc45)c32)C1` [Example 59, (S)-1-((7-(6-chloro-1-(1-methylpyrrolidin-3-yl)-1,2,3,4-tetrahydroquinolin-8-yl)thieno[3,2-b]pyridin-2-yl)methyl)pyrrolidine-2,5-dione] the IC50 was < 10 nM. With `CN1CC[C@@H](N2CCCc3cc(Cl)cc(-c4ccnc5cc(CN6C(=O)CCC6=O)sc45)c32)C1` [Example 60, (R)-1-((7-(6-chloro-1-(1-methylpyrrolidin-3-yl)-1,2,3,4-tetrahydroquinolin-8-yl)thieno[3,2-b]pyridin-2-yl)methyl)pyrrolidine-2,5-dione] the IC50 was < 10 nM. With `O=c1ccn(CCOC(F)F)c(=O)n1Cc1cc2nccc(-c3cc(Cl)cc4c3N([C@H]3CCNC3)CCC4)c2s1` [Example 61, (S)-3-((7-(6-chloro-1-(pyrrolidin-3-yl)-1,2,3,4-tetrahydroquinolin-8-yl)thieno[3,2-b]pyridin-2-yl)methyl)-1-(2-(difluoromethoxy)ethyl)pyrimidine-2,4(1H,3H)-dione] the IC50 was < 10 nM. For `O=c1ccn(CC2CC2)c(=O)n1Cc1cc2nccc(-c3cc(Cl)cc4c3N([C@H]3CCNC3)CCC4)c2s1` [Example 62, (S)-3-((7-(6-chloro-1-(pyrrolidin-3-yl)-1,2,3,4-tetrahydroquinolin-8-yl)thieno[3,2-b]pyridin-2-yl)methyl)-1-(cyclopropylmethyl)pyrimidine-2,4(1H,3H)-dione], the IC50 was < 10 nM. In the case of `Cn1ccc(=O)n(Cc2cc3nccc(-c4cc(Cl)cc5c4N([C@H]4CCNC4)CCC5)c3s2)c1=O` [Example 63, (S)-3-((7-(6-chloro-1-(pyrrolidin-3-yl)-1,2,3,4-tetrahydroquinolin-8-yl)thieno[3,2-b]pyridin-2-yl)methyl)-1-methylpyrimidine-2,4(1H,3H)-dione], the IC50 is reported as < 10 nM. `O=c1ccn(C[C@H](O)C(F)(F)F)c(=O)n1Cc1cc2nccc(-c3cc(Cl)cc4c3N([C@H]3CCNC3)CCC4)c2s1` [Example 64] was tested, and the IC50 was < 10 nM. For `O=c1ccn(C[C@@H](O)C(F)(F)F)c(=O)n1Cc1cc2nccc(-c3cc(Cl)cc4c3N([C@H]3CCNC3)CCC4)c2s1` [Example 65, 3-((7-(6-chloro-1-((S)-pyrrolidin-3-yl)-1,2,3,4-tetrahydroquinolin-8-yl)thieno[3,2-b]pyridin-2-yl)methyl)-1-((R)-3,3,3-trifluoro-2-hydroxypropyl)pyrimidine-2,4(1H,3H)-dione], the IC50 was < 10 nM. With `COCCc1cnn(Cc2cc3nccc(-c4cc(Cl)cc5c4N([C@H]4CCNC4)CCC5)c3s2)c(=O)c1` [Example 66, (S)-2-((7-(6-chloro-1-(pyrrolidin-3-yl)-1,2,3,4-tetrahydroquinolin-8-yl)thieno[3,2-b]pyridin-2-yl)methyl)-5-(2-methoxyethyl)pyridazin-3(2H)-one] the IC50 was < 10 nM. For `O=c1ccn(CCC(F)F)c(=O)n1Cc1cc2nccc(-c3cc(Cl)cc4c3N([C@H]3CCNC3)CCC4)c2s1` [Example 67, (S)-3-((7-(6-chloro-1-(pyrrolidin-3-yl)-1,2,3,4-tetrahydroquinolin-8-yl)thieno[3,2-b]pyridin-2-yl)methyl)-1-(3,3-difluoropropyl)pyrimidine-2,4(1H,3H)-dione], the IC50 was < 10 nM. For `O=c1n(Cc2cc3nccc(-c4cc(Cl)cc5c4N([C@H]4CCNC4)CCC5)c3s2)nc2n1CCC2` [Example 68, (S)-2-((7-(6-chloro-1-(pyrrolidin-3-yl)-1,2,3,4-tetrahydroquinolin-8-yl)thieno[3,2-b]pyridin-2-yl)methyl)-6,7-dihydro-2H-pyrrolo[2,1-c][1,2,4]triazol-3(5H)-one], the IC50 was < 10 nM. In the case of `O=c1ccn(CC2(C(F)F)CC2)c(=O)n1Cc1cc2nccc(-c3cc(Cl)cc4c3N([C@H]3CCNC3)CCC4)c2s1` [Example 69, (S)-3-((7-(6-chloro-1-(pyrrolidin-3-yl)-1,2,3,4-tetrahydroquinolin-8-yl)thieno[3,2-b]pyridin-2-yl)methyl)-1-((1-(difluoromethyl)cyclopropyl)methyl)pyrimidine-2,4(1H,3H)-dione], the IC50 is reported as < 10 nM. With `N#CC1(Cn2ccc(=O)n(Cc3cc4nccc(-c5cc(Cl)cc6c5N([C@H]5CCNC5)CCC6)c4s3)c2=O)CC1` [Example 70, (S)-1-((3-((7-(6-chloro-1-(pyrrolidin-3-yl)-1,2,3,4-tetrahydroquinolin-8-yl)thieno[3,2-b]pyridin-2-yl)methyl)-2,4-dioxo-3,4-dihydropyrimidin-1(2H)-yl)methyl)cyclopropanecarbonitrile] the IC50 was < 10 nM. An IC50 of 101 to 1000 nM was found for `O=C1c2ccccc2CN1Cc1cc2nccc(-c3cc(Cl)cc4c3N([C@H]3CCNC3)CCC4)c2s1` [Example 71, (S)-2-((7-(6-chloro-1-(pyrrolidin-3-yl)-1,2,3,4-tetrahydroquinolin-8-yl)thieno[3,2-b]pyridin-2-yl)methyl)isoindolin-1-one] in this work. With `O=c1ccn(C2CC2)c(=O)n1Cc1cc2nccc(-c3cc(Cl)cc4c3N([C@H]3CCNC3)CCC4)c2s1` [Example 72, (S)-3-((7-(6-chloro-1-(pyrrolidin-3-yl)-1,2,3,4-tetrahydroquinolin-8-yl)thieno[3,2-b]pyridin-2-yl)methyl)-1-cyclopropylpyrimidine-2,4(1H,3H)-dione] the IC50 was < 10 nM. In the case of `O=C1COC(=O)N1Cc1cc2nccc(-c3cc(Cl)cc4c3N([C@H]3CCNC3)CCC4)c2s1` [Example 73, (S)-3-((7-(6-chloro-1-(pyrrolidin-3-yl)-1,2,3,4-tetrahydroquinolin-8-yl)thieno[3,2-b]pyridin-2-yl)methyl)oxazolidine-2,4-dione], the IC50 is reported as < 10 nM. `CN1CC(=O)N(Cc2cc3nccc(-c4cc(Cl)cc5c4N([C@H]4CCNC4)CCC5)c3s2)C1=O` [Example 74, (S)-3-((7-(6-chloro-1-(pyrrolidin-3-yl)-1,2,3,4-tetrahydroquinolin-8-yl)thieno[3,2-b]pyridin-2-yl)methyl)-1-methylimidazolidine-2,4-dione] was tested, and the IC50 was < 10 nM. `O=c1ccn(C2CC(F)(F)C2)c(=O)n1Cc1cc2nccc(-c3cc(Cl)cc4c3N([C@H]3CCNC3)CCC4)c2s1` [Example 75] was tested, and the IC50 was < 10 nM. For `CN1CCC(=O)N(Cc2cc3nccc(-c4cc(Cl)cc5c4N([C@H]4CCNC4)CCC5)c3s2)C1=O` [Example 76, (S)-3-((7-(6-chloro-1-(pyrrolidin-3-yl)-1,2,3,4-tetrahydroquinolin-8-yl)thieno[3,2-b]pyridin-2-yl)methyl)-1-methyldihydropyrimidine-2,4(1H,3H)-dione], the IC50 was < 10 nM. With `O=C1CCN(CC(F)(F)F)C(=O)N1Cc1cc2nccc(-c3cc(Cl)cc4c3N([C@H]3CCNC3)CCC4)c2s1` [Example 77, (S)-3-((7-(6-chloro-1-(pyrrolidin-3-yl)-1,2,3,4-tetrahydroquinolin-8-yl)thieno[3,2-b]pyridin-2-yl)methyl)-1-(2,2,2-trifluoroethyl)dihydropyrimidine-2,4(1H,3H)-dione] the IC50 was < 10 nM. `O=c1ccn(CC(F)F)c(=O)n1Cc1cc2nccc(-c3cc(C(F)(F)F)cc4c3N([C@H]3CCNC3)CCC4)c2s1` [Example 81, (S)-1-(2,2-difluoroethyl)-3-((7-(1-(pyrrolidin-3-yl)-6-(trifluoromethyl)-1,2,3,4-tetrahydroquinolin-8-yl)thieno[3,2-b]pyridin-2-yl)methyl)pyrimidine-2,4(1H,3H)-dione] was tested, and the IC50 was < 10 nM. For `N#Cc1cc2c(c(-c3ccnc4cc(CN5C(=O)CCC5=O)sc34)c1)N([C@H]1CCNC1)CCC2` [Example 82, (S)-8-(2-((2,5-dioxopyrrolidin-1-yl)methyl)thieno[3,2-b]pyridin-7-yl)-1-(pyrrolidin-3-yl)-1,2,3,4-tetrahydroquinoline-6-carbonitrile], the IC50 was < 10 nM. For `N#Cc1cc2c(c(-c3ccnc4cc(Cn5c(=O)ccn(CC(F)(F)F)c5=O)sc34)c1)N([C@H]1CCNC1)CCC2` [Example 83, (S)-8-(2-((2,6-dioxo-3-(2,2,2-trifluoroethyl)-2,3-dihydropyrimidin-1(6H)-yl)methyl)thieno[3,2-b]pyridin-7-yl)-1-(pyrrolidin-3-yl)-1,2,3,4-tetrahydroquinoline-6-carbonitrile], the IC50 was < 10 nM. With `CCN1CC[C@H](N2CCCc3cc(C#N)cc(-c4ccnc5cc(Cn6c(=O)ccn(CC(F)(F)F)c6=O)sc45)c32)C1` [Example 84, (S)-8-(2-((2,6-dioxo-3-(2,2,2-trifluoroethyl)-2,3-dihydropyrimidin-1(6H)-yl)methyl)thieno[3,2-b]pyridin-7-yl)-1-(1-ethylpyrrolidin-3-yl)-1,2,3,4-tetrahydroquinoline-6-carbonitrile] the IC50 was < 10 nM. An IC50 of 10 to 100 nM was found for `CO[C@H]1C[C@@H](N2CC[C@H](N3CCCc4cc(C#N)cc(-c5ccnc6cc(Cn7c(=O)ccn(CC(F)(F)F)c7=O)sc56)c43)C2)C1` [Example 85, 8-(2-((2,6-dioxo-3-(2,2,2-trifluoroethyl)-2,3-dihydropyrimidin-1(6H)-yl)methyl)thieno[3,2-b]pyridin-7-yl)-1-((S)-1-((1s,3R)-3-methoxycyclobutyl)pyrrolidin-3-yl)-1,2,3,4-tetrahydroquinoline-6-carbonitrile] in this work. An IC50 of 10 to 100 nM was found for `N#Cc1cc2c(c(-c3ccnc4cc(Cn5c(=O)ccn(CC(F)(F)F)c5=O)sc34)c1)N([C@H]1CCN(C3CCC3)C1)CCC2` [Example 86, (S)-1-(1-cyclobutylpyrrolidin-3-yl)-8-(2-((2,6-dioxo-3-(2,2,2-trifluoroethyl)-2,3-dihydropyrimidin-1(6H)-yl)methyl)thieno[3,2-b]pyridin-7-yl)-1,2,3,4-tetrahydroquinoline-6-carbonitrile] in this work. In the case of `Cn1ccc(=O)n(Cc2cc3nccc(-c4cc(C#N)cc5c4N([C@H]4CCNC4)CCC5)c3s2)c1=O` [Example 87, (S)-8-(2-((3-methyl-2,6-dioxo-2,3-dihydropyrimidin-1(6H)-yl)methyl)thieno[3,2-b]pyridin-7-yl)-1-(pyrrolidin-3-yl)-1,2,3,4-tetrahydroquinoline-6-carbonitrile], the IC50 is reported as < 10 nM.
